Data from patent publication US5250416A, “Method for highly sensitive determination of NADH using kinase” (Noda Institute for Scientific Rsearch, priority 1991, dated 1993).

Tests used:
[1] = system: NADH kinase (the present enzyme); experiment: Inhibition, activation and stabilization of the present enzyme; format: biochemical, Pichia membranaefaciens
NADH kinase A = target: T1, NADH kinase A (Saccharomyces cerevisiae, UniProt Q06892); settings: as substrate of NADH kinase A; from reference; cited from earlier work
T1 sequence (Q06892 1-414): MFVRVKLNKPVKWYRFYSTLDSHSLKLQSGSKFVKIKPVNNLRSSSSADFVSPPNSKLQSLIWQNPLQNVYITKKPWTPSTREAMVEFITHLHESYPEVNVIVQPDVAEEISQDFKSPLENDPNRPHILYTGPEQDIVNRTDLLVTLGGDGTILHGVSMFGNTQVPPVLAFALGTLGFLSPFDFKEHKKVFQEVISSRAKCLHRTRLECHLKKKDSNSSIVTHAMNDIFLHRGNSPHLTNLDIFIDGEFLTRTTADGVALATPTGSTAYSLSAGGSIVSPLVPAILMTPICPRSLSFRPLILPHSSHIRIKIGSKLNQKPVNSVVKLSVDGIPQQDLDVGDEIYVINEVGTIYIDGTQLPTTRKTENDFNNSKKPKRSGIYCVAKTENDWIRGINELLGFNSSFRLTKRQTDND

NADH kinase B = target: T2, NADH kinase B (Saccharomyces cerevisiae, UniProt Q06892); settings: as substrate of NADH kinase B; from reference; cited from earlier work
T2 sequence (Q06892 1-414): T1 sequence (Q06892 1-414)

[2] = system: NADH kinase (the present enzyme); experiment: Substrate specificity of the present enzyme (NADH kinase); format: biochemical, Pichia membranaefaciens; settings: for Relative activity (%): as substrate of the present enzyme, 30° C., 20 minutes, pH 8.5, relative to NADH = 100; for Action of the present enzyme on the substrate (in words): substrate specificity
Experimental: The substrate specificity of the present enzyme was examined under the following reaction conditions.
To 0.9 ml of each of the substrate solutions containing NADH or NAD^+, respectively, shown in Table 1 was added 0.1 ml of 23 U/ml of the present enzyme, and the reaction was carried out at 30° C. for 20 minutes. Then, the reaction was terminated by heat treatment at 100° C. for 2 minutes, and the denatured protein was removed, after which the amount of NADPH or NADP^+ produced by the reaction of the corresponding substrate was measured as follows. As a control solution, there was used a mixture of each substrate solution and the present enzyme in which the reaction had been terminated immediately after mixing them.
With 1 ml of each of the reaction solutions obtained in the above was mixed 1 ml of a color-producing solution consisting of 10 mM G-6-P, 50 mM HEPPS buffer (pH 8.0), 10 mM magnesium chloride, 0.1% bovine serum albumin, 2.5 IU/ml G-6-P dehydrogenase (NADP^+ -dependent), 5 IU/ml diaphorase and 250 μM 2,6-dichlorophenolindophenol. The resulting mixture was immediately introduced into a constant-temperature cuvette of STASAR III spectrophotometer of Gilford and subjected to reaction at 30° C. Simultaneously with the reaction, the change of absorbance at 600 nm was measured with the lapse of time, and the difference (ΔOD600nm /min) between absorbance values 1 minute and 2 minutes after the initiation of the coloration reaction was taken as a measured value. As to the relative activity (%), a measured value (ΔOD600nm /min) obtained by using NAD^+ as substrate was shown as a percentage based on a measured value (ΔOD600nm /min) obtained by using NADH as substrate.

[3] = system: NADH kinase (the present enzyme); experiment: Km value (Michaelis constant) of the present enzyme for NADH; format: biochemical, Pichia membranaefaciens; settings: 30° C., pH 7.8 (Tris buffer)
Experimental: 0.9 Milliliters of the substrate solution containing NADH shown in Table 2 was preheated to 30° C., after which 0.1 ml of a solution of the present enzyme having an adequate concentration was added, and the reaction was carried out at 30° C. for 20 minutes. Thereafter, the reaction was terminated by heat treatment at 100° C. for 2 minutes, and the denatured protein was removed. Then, the amount of NADPH produced by the reaction of the substrate was measured as follows. As a control solution, there was used a mixture of the substrate solution and the present enzyme in which the reaction had been terminated immediately after mixing them.
With 1 ml of each of the reaction solutions obtained in the above was mixed 1 ml of a color-producing solution having the same composition as that of the color-producing solution described in the above item "Substrate specificity". […] Simultaneously with the reaction, the change of absorbance at 600 nm was measured with the lapse of time, and the difference (ΔOD600nm /min) between absorbance values 1 minute and 2 minutes after the initiation of the coloration reaction was obtained as a measured value. By the use of a calibration curve of ΔOD600nm /min versus NADPH concentration previously prepared using NADPH solutions of known concentrations, the amount of the NADPH produced was calculated from the measured value.

O[C@H](CS)[C@H](O)CS (racemic) [dithiothreitol]
Stabilization of the present enzyme [1]: stabilized

NC(=O)c1ccc[n+]([C@@H]2O[C@H](COP(=O)([O-])OP(=O)(O)OC[C@H]3O[C@@H](n4cnc5c(N)ncnc54)[C@H](O)[C@@H]3O)[C@@H](O)[C@H]2O)c1 [NAD^+]
Specificity (relative activity, NADH = 100) (NADH kinase A): 1.7 | Specificity (relative activity, NADH = 100) (NADH kinase B): 1.6 | Relative activity (%) [2]: 0.9% | Action of the present enzyme on the substrate (in words) [2]: hardly acts

CC(=O)N[C@@H](CS)C(=O)O [N-acetyl-L-cysteine]
Stabilization of the present enzyme [1]: stabilized

NC(=O)C1=CN([C@@H]2O[C@H](COP(=O)(O)OP(=O)(O)OC[C@H]3O[C@@H](n4cnc5c(N)ncnc54)[C@H](O)[C@@H]3O)[C@@H](O)[C@H]2O)C=CC1 [NADH]
Specificity (relative activity, NADH = 100) (NADH kinase A): 100 | Specificity (relative activity, NADH = 100) (NADH kinase B): 100 | Relative activity (%) [2]: 100% | Action of the present enzyme on the substrate (in words) [2]: very high specificity | Km [3]: 27 µM
